Laboratory results reported in PMC3066644 (Journal of Lipids, 2010).

Experiments:
acid ceramidase (aCDase) [1] = biological target: T1, acid ceramidase (aCDase) (Homo sapiens, UniProt Q13510); experiment: micellar aCDase assay with recombinant human enzyme, HPLC fluorescence detection of sphingosine; assay type: biochemical
T1 construct: gene ASAH1
T1 sequence (Q13510 22-142): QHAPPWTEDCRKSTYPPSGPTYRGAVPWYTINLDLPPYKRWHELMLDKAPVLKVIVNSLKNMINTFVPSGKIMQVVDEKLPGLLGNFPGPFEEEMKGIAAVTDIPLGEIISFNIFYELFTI
T1 sequence (Q13510 143-395): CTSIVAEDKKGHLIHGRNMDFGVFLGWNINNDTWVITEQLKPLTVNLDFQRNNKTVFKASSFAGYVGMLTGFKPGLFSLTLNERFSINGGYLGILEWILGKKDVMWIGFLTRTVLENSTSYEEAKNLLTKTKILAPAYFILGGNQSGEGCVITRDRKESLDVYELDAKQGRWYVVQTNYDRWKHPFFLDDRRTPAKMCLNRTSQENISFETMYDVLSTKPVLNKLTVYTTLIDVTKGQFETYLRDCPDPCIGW

acid ceramidase (aCDase) [2] = biological target: T1, acid ceramidase (aCDase); experiment: micellar aCDase assay at […] inhibitor, recombinant human enzyme; assay type: biochemical

SMILES | IC50 (acid ceramidase (aCDase) [1]) [nM] | micellar aCDase assay at 2.5 μM inhibitor, recombinant human enzyme (acid ceramidase (aCDase) [2])
CCCCCCCCCCCCCC(=O)NCC(O)c1ccccc1 (racemic) [DP24a, N-(2-Hydroxy-2-Phenylethyl)-Tetradecanamide] | 1290 | –
CCCCCCCCCCCCCC(=O)NCC(O)c1cccnc1 (racemic) [DP24c, N-(2-Hydroxy-2-(Pyridin-3-yl)-Ethyl)Tetradecanamide] | – | Although DP24c provides a basic moiety, it showed at least the same inhibition as DP24a or DP24b
CCCCCCCCCCCCCCNC(=O)NCC(O)c1cccnc1 (racemic) [DP25c, 1-(2-Hydroxy-2-(Pyridin-3-yl)Ethyl)-3-Tetradecylurea] | – | Evaluation in the aCDase assay revealed only a slightly better inhibition
CCCCCCCCCCCCCCNC(=O)NCC(O)c1ccccc1 (racemic) [DP25a, 1-(2-Hydroxy-2-Phenylethyl)-3-Tetradecylurea] | – | Evaluation in the aCDase assay revealed only a slightly better inhibition
